# Assays:
# Experiment in all cases: relative viability (nuclei count vs DMSO), 5 days (fraction); higher = more cells survive
# NCI-H1915 = test system: NCI-H1915
# Summary of the method: (§1)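 Lung cancer cell lines were pin-tool dosed in 1536-well plates on the day after seeding, with either a lone drug or a fixed anchor-drug dose plus five library-drug doses (not always all listed) in √10 steps. Nuclei were counted on 4× images after 5 days. Relative viability is the ratio of treated-well to vehicle-well nuclei counts, with each value a median of duplicate plates.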
# COR-L 105 = test system: COR-L 105
# Summary of the method: as §1
# NCI-H1944 = test system: NCI-H1944
# Summary of the method: as §1
# HCC-78 = test system: HCC-78
# Summary of the method: as §1
# UMC-11 = test system: UMC-11
# Summary of the method: as §1
# SK-LU-1 = test system: SK-LU-1
# Summary of the method: as §1
# LXF-289 = test system: LXF-289
# Summary of the method: as §1
# LC-2-ad = test system: LC-2-ad
# Summary of the method: as §1
# NCI-H1793 = test system: NCI-H1793
# Summary of the method: as §1
# EPLC-272H = test system: EPLC-272H
# Summary of the method: as §1
# NCI-H460 = test system: NCI-H460
# Summary of the method: as §1
# A-427 = test system: A-427
# Summary of the method: as §1
# NCI-H1792 = test system: NCI-H1792
# Summary of the method: as §1
# HOP-62 = test system: HOP-62
# Summary of the method: as §1
# NCI-H1975 = test system: NCI-H1975
# Summary of the method: as §1
# NCI-H1755 = test system: NCI-H1755
# Summary of the method: as §1
# NCI-H358 = test system: NCI-H358
# Summary of the method: as §1
# SW 900 = test system: SW 900
# Summary of the method: as §1
# LCLC-97TM1 = test system: LCLC-97TM1
# Summary of the method: as §1
# NCI-H2170 = test system: NCI-H2170
# Summary of the method: as §1
# NCI-H2085 = test system: NCI-H2085
# Summary of the method: as §1
# LU99A = test system: LU99A
# Summary of the method: as §1
# NCI-H2342 = test system: NCI-H2342
# Summary of the method: as §1
# HCC-366 = test system: HCC-366
# Summary of the method: as §1
structure (smiles),measurement,setting,value
C[C@@H]1CN(CC(=O)Nc2ccc3c(c2)Cc2cccc(-c4cc(=O)cc(N5CCOCC5)o4)c2S3)C[C@H](C)O1 + COc1cccc2cc(-c3nc([C@H]4CC[C@H](C(=O)O)CC4)n4ncnc(N)c34)[nH]c12 [OSI-027] (partner 0.5 µM),relative viability,NCI-H1915; first compound 0.04 µM,0.623
same,relative viability,NCI-H1915; first compound 0.1265 µM,0.682
same,relative viability,NCI-H1915; first compound 0.4 µM,0.632
same,relative viability,NCI-H1915; first compound 4 µM,0.497
same,relative viability,COR-L 105; first compound 0.04 µM,0.728
same,relative viability,COR-L 105; first compound 0.1265 µM,0.828
same,relative viability,COR-L 105; first compound 0.4 µM,0.823
same,relative viability,COR-L 105; first compound 4 µM,0.661
same,relative viability,NCI-H1944; first compound 0.04 µM,0.386
same,relative viability,NCI-H1944; first compound 0.1265 µM,0.475
same,relative viability,NCI-H1944; first compound 0.4 µM,0.389
same,relative viability,NCI-H1944; first compound 4 µM,0.336
same,relative viability,HCC-78; first compound 0.04 µM,0.372
same,relative viability,HCC-78; first compound 0.1265 µM,0.358
same,relative viability,HCC-78; first compound 0.4 µM,0.365
same,relative viability,HCC-78; first compound 4 µM,0.384
same,relative viability,UMC-11; first compound 0.04 µM,0.51
same,relative viability,UMC-11; first compound 0.1265 µM,0.464
same,relative viability,UMC-11; first compound 0.4 µM,0.472
same,relative viability,UMC-11; first compound 4 µM,0.352
same,relative viability,SK-LU-1; first compound 0.04 µM,0.393
same,relative viability,SK-LU-1; first compound 0.1265 µM,0.4
same,relative viability,SK-LU-1; first compound 0.4 µM,0.386
same,relative viability,SK-LU-1; first compound 4 µM,0.237
same,relative viability,LXF-289; first compound 0.04 µM,0.779
same,relative viability,LXF-289; first compound 0.1265 µM,0.829
same,relative viability,LXF-289; first compound 0.4 µM,0.86
same,relative viability,LXF-289; first compound 4 µM,0.777
same,relative viability,LC-2-ad; first compound 0.04 µM,0.984
same,relative viability,LC-2-ad; first compound 0.1265 µM,0.923
same,relative viability,LC-2-ad; first compound 0.4 µM,0.649
same,relative viability,LC-2-ad; first compound 4 µM,0.656
same,relative viability,NCI-H1793; first compound 0.04 µM,0.256
same,relative viability,NCI-H1793; first compound 0.1265 µM,0.272
same,relative viability,NCI-H1793; first compound 0.4 µM,0.247
same,relative viability,NCI-H1793; first compound 4 µM,0.149
same,relative viability,EPLC-272H; first compound 0.04 µM,0.279
same,relative viability,EPLC-272H; first compound 0.1265 µM,0.334
same,relative viability,EPLC-272H; first compound 0.4 µM,0.301
same,relative viability,EPLC-272H; first compound 4 µM,0.304
same,relative viability,NCI-H460; first compound 0.04 µM,0.662
same,relative viability,NCI-H460; first compound 0.1265 µM,0.674
same,relative viability,NCI-H460; first compound 0.4 µM,0.587
same,relative viability,NCI-H460; first compound 4 µM,0.253
same,relative viability,A-427; first compound 0.04 µM,0.501
same,relative viability,A-427; first compound 0.1265 µM,0.53
same,relative viability,A-427; first compound 0.4 µM,0.482
same,relative viability,A-427; first compound 4 µM,0.575
same,relative viability,NCI-H1792; first compound 0.04 µM,0.692
same,relative viability,NCI-H1792; first compound 0.1265 µM,0.639
same,relative viability,NCI-H1792; first compound 0.4 µM,0.633
same,relative viability,NCI-H1792; first compound 4 µM,0.458
same,relative viability,HOP-62; first compound 0.04 µM,0.828
same,relative viability,HOP-62; first compound 0.1265 µM,0.797
same,relative viability,HOP-62; first compound 0.4 µM,0.763
same,relative viability,HOP-62; first compound 4 µM,0.881
same,relative viability,NCI-H1975; first compound 0.04 µM,0.74
same,relative viability,NCI-H1975; first compound 0.1265 µM,0.602
same,relative viability,NCI-H1975; first compound 0.4 µM,0.608
same,relative viability,NCI-H1975; first compound 4 µM,0.448
same,relative viability,NCI-H1755; first compound 0.04 µM,0.697
same,relative viability,NCI-H1755; first compound 0.1265 µM,0.651
same,relative viability,NCI-H1755; first compound 0.4 µM,0.668
same,relative viability,NCI-H1755; first compound 4 µM,0.578
same,relative viability,NCI-H358; first compound 0.04 µM,0.679
same,relative viability,NCI-H358; first compound 0.1265 µM,0.673
same,relative viability,NCI-H358; first compound 0.4 µM,0.852
same,relative viability,NCI-H358; first compound 4 µM,0.418
same,relative viability,SW 900; first compound 0.04 µM,0.455
same,relative viability,SW 900; first compound 0.1265 µM,0.573
same,relative viability,SW 900; first compound 0.4 µM,0.647
same,relative viability,SW 900; first compound 4 µM,0.45
same,relative viability,LCLC-97TM1; first compound 0.04 µM,0.45
same,relative viability,LCLC-97TM1; first compound 0.1265 µM,0.601
same,relative viability,LCLC-97TM1; first compound 0.4 µM,0.408
same,relative viability,LCLC-97TM1; first compound 4 µM,0.509
same,relative viability,NCI-H2170; first compound 0.04 µM,0.712
same,relative viability,NCI-H2170; first compound 0.1265 µM,0.685
same,relative viability,NCI-H2170; first compound 0.4 µM,0.581
same,relative viability,NCI-H2170; first compound 4 µM,0.707
same,relative viability,NCI-H2085; first compound 0.04 µM,0.97
same,relative viability,NCI-H2085; first compound 0.1265 µM,0.611
same,relative viability,NCI-H2085; first compound 0.4 µM,0.476
same,relative viability,NCI-H2085; first compound 4 µM,0.477
same,relative viability,LU99A; first compound 0.04 µM,0.282
same,relative viability,LU99A; first compound 0.1265 µM,0.34
same,relative viability,LU99A; first compound 0.4 µM,0.299
same,relative viability,LU99A; first compound 4 µM,0.374
same,relative viability,NCI-H2342; first compound 0.04 µM,0.647
same,relative viability,NCI-H2342; first compound 0.1265 µM,0.506
same,relative viability,NCI-H2342; first compound 0.4 µM,0.52
same,relative viability,NCI-H2342; first compound 4 µM,0.58
same,relative viability,HCC-366; first compound 0.04 µM,1.04
same,relative viability,HCC-366; first compound 0.1265 µM,0.867
same,relative viability,HCC-366; first compound 0.4 µM,0.648
same,relative viability,HCC-366; first compound 4 µM,0.502
